Source: ChEMBL document CHEMBL1139335, “Enaminones 8: CoMFA and CoMSIA studies on some anticonvulsant enaminones” (Bioorg Med Chem, 2009)
Active and inactive are the calls of the source. No cut-off for these calls is given here.

system: Mus musculus; assay: Anticonvulsant activity in mouse assessed as inhibition of pentylenetetrazole-induced seizure at 100 mg/kg; type: functional, organism-based; set-up: dose 100 mg/kg

| SMILES | Activity |
| --- | --- |
| COc1ccc(C(=O)NC2=CC(=O)CC(C)C2)cc1 (stereo not drawn) | Active |
| COC(=O)C1C(=O)C=C(Nc2ccc(C(F)(F)F)cc2)CC1(C)C (stereo not drawn) | Active |
| CCOC(=O)C1C(=O)C=C(NC(=O)c2ccc(C)cc2)CC1C (stereo not drawn) | Active |
| CCOC(=O)C1C(=O)C=C(Nc2ccc(C#N)cc2)CC1C (stereo not drawn) | Active |
| NC1=CC(=O)CCC1 | Active |
| CCOC(=O)C1C(=O)C=C(Nc2ccc(Cl)cc2)CC1C (stereo not drawn) | Active |
| CC1(C)CC(=O)C=C(NC(=O)c2ccc(C#N)cc2)C1 | Active |
| N#Cc1ccc(C(=O)NC2=CC(=O)CCC2)cc1 | Active |

system: Mus musculus; assay: Anticonvulsant activity in mouse assessed as inhibition of pentylenetetrazole-induced seizure at 100 to 300 mg/kg; type: functional, organism-based

| SMILES | Activity |
| --- | --- |
| CCOC(=O)C1C(=O)C=C(Nc2cc(C)ccc2OC)CC1C (stereo not drawn) | Active |
| CC(=O)/C=C(\C)Nc1ccc(Cl)cc1 | Active |
| CC1CC(=O)C=C(Nc2ccc(Cl)cc2)C1 (stereo not drawn) | Active |
| CCOC(=O)C1C(=O)C=C(Nc2ccc(Cl)cc2Cl)CC1C (stereo not drawn) | Active |
| COC(=O)C1C(=O)C=C(Nc2ccc(Cl)cc2)CC1(C)C (stereo not drawn) | Active |
| COC(=O)C1C(=O)C=C(Nc2ccc(F)cc2)CC1C (stereo not drawn) | Active |
| CCc1ccc(N/C(C)=C/C(C)=O)cc1 | Active |
| CC1CC(=O)C=C(Nc2ccc(F)cc2)C1 (stereo not drawn) | Active |
| COC(=O)C1C(=O)C=C(Nc2ccc(C(F)(F)F)cc2)CC1C (stereo not drawn) | Active |
| CC1CC(=O)C=C(Nc2ccc(OC(F)(F)F)cc2)C1 (stereo not drawn) | Active |
| COC(=O)C1C(=O)C=C(Nc2ccc(OC(F)(F)F)cc2)CC1C (stereo not drawn) | Active |
| COC(=O)C1C(=O)C=C(Nc2ccccc2F)CC1C (stereo not drawn) | Active |
| CCOC(=O)C1C(=O)C=C(Nc2ccc(Cl)c(Cl)c2)CC1C (stereo not drawn) | Active |
| COc1ccc(N/C(C)=C/C(C)=O)cc1 | Active |
| COC(=O)C1C(=O)C=C(Nc2ccc(Cl)cn2)CC1C (stereo not drawn) | Active |
| CC1CC(=O)C=C(Nc2cccc(Br)c2)C1 (stereo not drawn) | Active |
| CCOC(=O)C1C(=O)C2=C(CC1C)Nc1ccc(Cl)cc1S2 (stereo not drawn) | Active |
| COC(=O)C1C(=O)C=C(Nc2ccc(Br)cc2)CC1C (stereo not drawn) | Active |
| CCOC(=O)C1C(=O)C=C(Nc2ccc(Cl)cn2)CC1C (stereo not drawn) | Active |
| CC(=O)/C=C(\C)Nc1ccc(Br)cc1 | Active |
| CCOC(=O)C1CCC(Nc2cccc(OC(F)(F)F)c2)=CC1=O (stereo not drawn) | Active |
| CC(=O)/C=C(\C)Nc1ccc(I)cc1 | Active |
| CCOC(=O)C1C(=O)C=C(Nc2ccc(F)cc2)CC1C (stereo not drawn) | Active |
| CC1CC(=O)C=C(Nc2cccc(Cl)c2)C1 (stereo not drawn) | Active |
| COC(=O)C1C(=O)C=C(Nc2ccc(Cl)c(Cl)c2)CC1C (stereo not drawn) | Active |
